Literature values in patent US20110052581A1 (Poniard Pharmaceuticals Inc., priority 2008, published 2011).

Test system: patients with advanced colorectal cancer
Conditions: single agent therapy

| Structure (SMILES) | progression-free survival (median) [months] | response rate [%] | median survival [months] |
| --- | --- | --- | --- |
| O=C1[O][Pt]2([NH][C@@H]3CCCC[C@H]3[NH]2)[O]C1=O [oxaliplatin] | 4.0 | 12 | – |
| CCc1c2c(nc3ccc(OC(=O)N4CCC(N5CCCCC5)CC4)cc13)-c1cc3c(c(=O)n1C2)COC(=O)[C@]3(O)CC [irinotecan] | 4.3 | 18 | ~12 |
